# Results as given in paper PMC3665789 (PLoS ONE, 2013).
# Read-outs that look alike come from different tables or passages of the source.
# How the values were obtained:
# [1] = tested on: HSV-1 wild-type RV-175 (clinical isolate); details: HEL cells; HSV-1 RV-175; CPE
# HIV-1 IIIB = experiment: Time-of-drug-addition study, HIV; format: cell-based; details: MT-4 cells, 48 µM LabyA1
# Description: The time-of-drug-addition (TOA) experiments were performed as described. In brief, 1×10^6 MT-4 cells/ml were infected with HIV-1 X4 IIIB at a multiplicity of infection (MOI) of 0.5. The compounds were added at different time points in a range from 0 to 26 h post-infection. After 31 h, HIV-1 replication was detected by p24 HIV-1 Ag ELISA as described above. The reference compounds were added at 100 times their EC50-values, as obtained in the MT-4 cell antiviral assay.
# [2] = tested on: HIV-1 CI#17 (clinical isolate; X4); details: PBMCs; CI#17, group M subtype B; p24 Ag ELISA
# HIV-2 ROD (R5/X4) = details: read-out: EC50 (µM ± SEM), MT-4 cells, MTS/PES method
# [3] = tested on: HIV-1 ETH2220 (clinical isolate; R5); details: PBMCs; ETH2220, group M subtype C; p24 Ag ELISA
# X4 HIV-1 gp120 IIIB = molecular target: T1, X4 HIV-1 gp120 IIIB (Human immunodeficiency virus type 1 group M subtype B, UniProt P04578); experiment: Surface plasmon resonance; format: binding
# T1 construct: Recombinant gp120 proteins from X4 HIV-1 IIIB strain; purchased ImmunoDiagnostics Inc., Woburn, MA
# Description: (§1) Recombinant gp120 proteins from X4 HIV-1 IIIB strain (ImmunoDiagnostics Inc., Woburn, MA) and from R5 HIV-1 strains ADA and YU2 (ImmunoDiagnostics Inc.) were covalently immobilized on a CM5 sensor chip in 10 mM sodium acetate, pH 4.0, using standard amine coupling chemistry. […] A reference flow cell was used as a control for non-specific binding and refractive index changes. […] Samples (in duplicate) were injected for 2 minutes at a flow rate of 45 µl/min and the dissociation was followed for 4 minutes. Several buffer blanks were used for double referencing. The CM5 sensor chip surface was regenerated with a single injection of 50 mM NaOH. A DMSO concentration series was included to eliminate the contribution of DMSO to the measured response. […] The experimental data were fit using the 1∶1 binding model Biacore T200 Evaluation software 1.0 to determine the binding kinetics.
# R5 HIV-1 gp120 YU2 = molecular target: T2, R5 HIV-1 gp120 YU2 (Human immunodeficiency virus type 1 group M subtype B, UniProt P35961); experiment: Surface plasmon resonance; format: binding
# T2 construct: Recombinant gp120 proteins from X4 HIV-1 IIIB strain (ImmunoDiagnostics Inc., Woburn, MA) and from R5 HIV-1 strains ADA and YU2; purchased ImmunoDiagnostics Inc
# Description: as §1
# HIV-1 IIIB^FGMres. (X4) = details: read-out: EC50 (µM ± SEM); MT-4 cells; IIIB resistant to feglymycin (FGM); MTS/PES
# [4] = tested on: HSV-1 wild-type RV-174 (clinical isolate); details: HEL cells; HSV-1 RV-174; CPE
# HIV-1 R5 BaL in PBMCs = experiment: Susceptibility of pre-treated PBMCs for HIV-1 infection; details: washed, HIV-1 BaL, day 7
# Description: The next day, cells were collected, extensively washed in culture medium, resuspended (5×10^5 cells/450 µl) and seeded in a 48-well plate. Immediately afterwards, 50 µl of HIV-1 R5 strain BaL (500 pg/well) was added and cells were cultures for 7 days. Supernatant was collected 7 days post virus infection and viral replication was determined by p24 HIV-1 Ag ELISA.
# HIV-1 BaL (R5) = details: read-out: EC50 (µM ± SEM), MDM, p24 Ag ELISA
# Description: Afterwards, the non-adherent cells were gently mixed and removed from the adherent cell layer. The cells were carefully washed and this washing step was repeated after 6 days of incubation at 37°C. The adherent cells were then infected with HIV-1 R5 BaL.
# MDM were seeded in a 48-well plate in 1 ml medium. […] Each concentration was tested in triplicate. After an incubation of 30 minutes at 37°C, 1000 pg/well of p24 Ag of HIV-1 R5 BaL was added. Three weeks post-infection, supernatant was collected and viral replication evaluated by p24 HIV-1 Ag ELISA.
# [5] = Cytotoxicity assay (flow cytometry); format: cell-based; details: 3 days, read-out: 50% cytotoxic concentration (CC50)
# Description: The vaginal epithelial cell lines HEC-1A and VK2 (500 µl; at a density of 1×10^6 cells/ml) were seeded in a 24-well plate and incubated for 3 days with various concentrations of LabyA1 (500 µl). Cell cytotoxicity was determined microscopically and by flow cytometry (FACSCalibur, BD Biosciences, Erembodegem, Belgium).
# CXCR4 = CXCR4 (Homo sapiens, UniProt P61073); experiment: Anti-CXCR4 mAb binding on SupT1 cells (flow cytometry); set-up: endogenous in cells; host or cells: SupT1 T cells (ATCC)
# Description: To determine the interaction of LabyA1 with CD4, SupT1 cells (100 µl; 3×10^6 cells/ml) were incubated for 20 min at 4°C with 9.6 µM, 1.9 µM or 0 µM LabyA1. After extensive washing with PBS/FCS2% (PBS supplemented with 2% FCS), anti-CD4-PE conjugated mAbs RPA-T4 (eBioscience, Vienna, Austria), MT441 (Ancell, Enzo Life sciences) and OKT-4 (eBioscience) were added for 30 min at 4°C. For aspecific background staining, cells were incubated with SimulTest™ Control (IgGγ1-FITC/IgGγ2a-PE) (BD Biosciences). After washing, and fixation with 1% formaldehyde solution, samples were analyzed using the FACSCalibur and CellQuest software (BD Biosciences). The same protocol was applied for anti-CXCR4 evaluation using the fluorochrome conjugated mAbs 12G5-PE and 2B11-FITC (both BD Biosciences).
# [6] = tested on: HSV-2 wild-type RV-24 (clinical isolate); details: HEL cells; HSV-2 RV-24; CPE
# CXCR4, sequence (P61073 whole entry): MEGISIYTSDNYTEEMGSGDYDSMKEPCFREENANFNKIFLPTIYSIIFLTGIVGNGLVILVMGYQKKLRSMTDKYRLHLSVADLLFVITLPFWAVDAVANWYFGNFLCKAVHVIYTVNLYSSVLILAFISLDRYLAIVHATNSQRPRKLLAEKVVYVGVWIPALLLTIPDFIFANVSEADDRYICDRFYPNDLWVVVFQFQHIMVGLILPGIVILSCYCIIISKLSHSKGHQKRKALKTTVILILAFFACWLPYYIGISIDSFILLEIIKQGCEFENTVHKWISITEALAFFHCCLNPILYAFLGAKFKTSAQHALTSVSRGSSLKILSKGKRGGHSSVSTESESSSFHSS
smiles,measurement,setting,value
"C/C=C1\NC(=O)[C@H](Cc2ccccc2)NC(=O)[C@@H]2CCCN2C(=O)[C@H](C(C)C)NC(=O)[C@H](Cc2c[nH]c3ccccc23)NC(=O)[C@]23CSC[C@H](NC1=O)C(=O)N[C@H](C(=O)O)CSSC[C@H](NC(=O)[C@@H]1CSC[C@]4(C[C@H](N)C(=O)N[C@@H](CC(N)=O)C(=O)N[C@@H](C)C(=O)N4)C(=O)N[C@@H](C(C)C)C(=O)N[C@@H](Cc4c[nH]c5ccccc45)C(=O)N[C@@H](CCC(=O)O)C(=O)N1)C(=O)N[C@@H](C2)C(=O)N[C@@H]([C@@H](C)O)C(=O)NCC(=O)N3 [LabyA1, labyrinthopeptin A1]",EC50,[1],2800 ± 500 nM
same,time-of-drug-addition profile,HIV-1 IIIB,prevented HIV infection at an early time point somewhat comparable with AMD3100
same,EC50,[2],1000 ± 200 nM
same,EC50,HIV-2 ROD (R5/X4),1.9 ± 0.7 µM
same,EC50,[3],780 ± 60 nM
same,Kd,X4 HIV-1 gp120 IIIB,7800 ± 2100 nM
same,Kd,R5 HIV-1 gp120 YU2,9800 ± 1600 nM
same,EC50,HIV-1 IIIB^FGMres. (X4),1.9 ± 0.1 µM
same,EC50,[4],2700 ± 1000 nM
same,p24 HIV-1 Ag production after pre-treatment,HIV-1 R5 BaL in PBMCs; PBMCs pre-treated 24 h with 1.9 µM,12.26 ± 4.61 ng/mL
same,p24 HIV-1 Ag production after pre-treatment,"HIV-1 R5 BaL in PBMCs; PBMCs pre-treated 24 h with 9.6 µM, no compound 12.69±4.83",15.37 ± 3.75 ng/mL
same,EC50,HIV-1 BaL (R5),2.4 ± 0.8 µM
same,CC50,[5]; HEC-1A (endometrium carcinoma),34000 nM
same,CC50,[5]; VK2 (vaginal epithelial),> 48000 nM
same,inhibition of binding of anti-CXCR4 mAb 12G5,"CXCR4; SupT1 cells, 9.6 µM and 1.9 µM",unable to inhibit
same,binding of anti-CXCR4 mAbs clone 12G5 and 2B11 to CXCR4,CXCR4; data not shown,did not affect the binding
same,EC50,[6],410 ± 280 nM
